Our source for the IC50 values is patent US7642270B2, “5-oxo-5,8-dihydro-pyrido-pyrimidine as inhibitors of c-fms kinase” (Janssen Pharmaceutica N.V., priority 2005, dated 2010).

The target of this assay is c-fms (Homo sapiens, UniProt P07333). The experiment in a line: c-fms autophosphorylation, fluorescence polarization competition immunoassay. It counts as biochemical. The settings on record: 10 nM c-fms, 1 mM ATP, 5 mM MgCl2, 45 min room temperature; averages of three independent measurements; read-out: c-fms Autophosphorylation IC50. As to the method: Autophosphorylation, Fluorescence Polarization Competition Immunoassay
The assay buffer used was 100 mM 4-(2-hydroxyethyl)piperazine 1-ethanesulfonic acid (HEPES), pH 7.5, 1 mM 1,4-dithio-DL-threitol (DTT), 0.01% (v/v) Tween-20. Compounds were diluted in assay buffer containing 4% dimethylsulfoxide (DMSO) just prior to the assay. […] The kinase reaction was initiated by adding 2 μL of 5 mM ATP (Sigma) in assay buffer. The final concentrations in the assay were 10 nM c-fms, 1 mM ATP, 5 mM MgCl2, 2% DMSO. Control reactions were ran in each plate: in positive and negative control wells, assay buffer (made 4% in DMSO) was substituted for the compound; in addition, positive control wells received 1.2 μL of 50 mM ethylenediaminetetraaceticacid (EDTA).
The plates were incubated at room temperature for 45 min. At the end of the incubation, the reaction was quenched with 1.2 μL of 50 mM EDTA (EDTA was not added to the positive control wells at this point; see above). Following a 5-min incubation, each well received 10 μL of a 1:1:3 mixture of anti-phosphotyrosine antibody, 10×, PTK green tracer, 10× (vortexed), FP dilution buffer, respectively (all from PanVera, cat. # P2837). The plate was covered, incubated for 30 min at room temperature and the fluorescence polarization was read on the Analyst.
The IC50 values shown in Table 1 are averages of three independent measurements.
A general note: Fluorescence polarisation rises when a labelled molecule tumbles more slowly, as on binding a larger partner.

Sequence of c-fms (P07333 20-972): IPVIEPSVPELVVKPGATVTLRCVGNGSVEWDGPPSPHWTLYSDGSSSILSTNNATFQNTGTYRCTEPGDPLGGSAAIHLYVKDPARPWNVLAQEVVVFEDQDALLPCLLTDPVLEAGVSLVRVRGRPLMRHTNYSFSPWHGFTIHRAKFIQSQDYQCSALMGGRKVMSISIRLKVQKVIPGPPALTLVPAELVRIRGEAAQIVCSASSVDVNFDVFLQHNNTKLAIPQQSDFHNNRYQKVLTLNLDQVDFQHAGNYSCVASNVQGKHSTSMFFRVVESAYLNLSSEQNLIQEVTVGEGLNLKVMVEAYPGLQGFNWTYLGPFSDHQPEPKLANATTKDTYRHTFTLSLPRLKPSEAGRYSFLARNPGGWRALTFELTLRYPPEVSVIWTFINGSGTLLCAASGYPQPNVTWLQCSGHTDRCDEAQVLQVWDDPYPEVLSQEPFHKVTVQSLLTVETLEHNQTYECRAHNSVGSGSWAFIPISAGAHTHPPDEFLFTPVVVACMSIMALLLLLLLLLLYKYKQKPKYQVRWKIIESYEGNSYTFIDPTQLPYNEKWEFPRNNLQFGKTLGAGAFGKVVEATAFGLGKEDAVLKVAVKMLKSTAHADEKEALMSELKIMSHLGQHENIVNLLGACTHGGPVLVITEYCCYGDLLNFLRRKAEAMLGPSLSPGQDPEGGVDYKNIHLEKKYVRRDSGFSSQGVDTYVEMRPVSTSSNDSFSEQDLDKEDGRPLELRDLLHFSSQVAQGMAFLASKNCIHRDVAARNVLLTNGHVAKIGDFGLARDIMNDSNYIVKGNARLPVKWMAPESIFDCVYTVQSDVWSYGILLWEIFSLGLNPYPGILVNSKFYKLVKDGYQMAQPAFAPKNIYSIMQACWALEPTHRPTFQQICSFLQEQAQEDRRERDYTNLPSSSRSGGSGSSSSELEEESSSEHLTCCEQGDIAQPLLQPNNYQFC

As usually defined, the IC50 is the concentration that inhibits the measured activity by half. As to `CCOC(=O)c1cn(-c2ccc3c(c2)CCC3)c2nc(Nc3ccc(N4CCN(C)CC4)cc3)ncc2c1=O` [Cpd 1, 8-Indan-5-yl-2-[4-(4-methyl-piperazin-1-yl)-phenylamino]-5-oxo-5,8-dihydro-pyrido[2,3-d]pyrimidine-6-carboxylic acid ethyl ester], the IC50 was 280 nM. The figure for `CCOC(=O)c1cn(-c2ccc3c(c2)CCC3)c2nc(Nc3ccc(OCC(O)CN(C)C)cc3)ncc2c1=O` (stereo not shown) [Cpd 2, 2-[4-(3-Dimethylamino-2-hydroxy-propoxy)-phenylamino]-8-indan-5-yl-5-oxo-5,8-dihydro-pyrido[2,3-d]pyrimidine-6-carboxylic acid ethyl ester] is 440 nM; for `CCOC(=O)c1cn(-c2ccc3c(c2)CCC3)c2nc(Nc3ccc(N4CCOCC4)cc3)ncc2c1=O` [Cpd 3, 8-Indan-5-yl-2-(4-morpholin-4-yl-phenylamino)-5-oxo-5,8-dihydro-pyrido[2,3-d]pyrimidine-6-carboxylic acid ethyl ester] it is 2900 nM; for `CCOC(=O)c1cn(-c2ccc3c(c2)CCC3)c2nc(Nc3ccc(N(C)C)cc3)ncc2c1=O` [Cpd 4, 2-(4-Dimethylamino-phenylamino)-8-indan-5-yl-5-oxo-5,8-dihydro-pyrido[2,3-d]pyrimidine-6-carboxylic acid ethyl ester] it is more than 10000 nM. With `CCOC(=O)c1cn(-c2ccc3c(c2)CCC3)c2nc(Nc3cccc(N(C)C)c3)ncc2c1=O` [Cpd 5, 2-(3-Dimethylamino-phenylamino)-8-indan-5-yl-5-oxo-5,8-dihydro-pyrido[2,3-d]pyrimidine-6-carboxylic acid ethyl ester], the 50% inhibitory concentration (IC50) was determined as 590 nM. In the case of `CN1CCN(c2ccc(Nc3ncc4c(=O)c(C(=O)O)cn(-c5ccc6c(c5)CCC6)c4n3)cc2)CC1` [Cpd 6, 8-Indan-5-yl-2-[4-(4-methyl-piperazin-1-yl)-phenylamino]-5-oxo-5,8-dihydro-pyrido[2,3-d]pyrimidine-6-carboxylic acid] it was 1100 nM; in that of `CNC(=O)c1cn(-c2ccc3c(c2)CCC3)c2nc(Nc3ccc(N4CCN(C)CC4)cc3)ncc2c1=O` [Cpd 8, 8-indan-5-yl-2-[4-(4-methyl-piperazin-1-yl)-phenylamino]-5-oxo-5,8-dihydro-pyrido[2,3-d]pyrimidine-6-carboxylic acid methylamide], 31 nM; in that of `CCNC(=O)c1cn(-c2ccc3c(c2)CCC3)c2nc(Nc3ccc(N4CCN(C)CC4)cc3)ncc2c1=O` [Cpd 9, 8-indan-5-yl-2-[4-(4-methyl-piperazin-1-yl)-phenylamino]-5-oxo-5,8-dihydro-pyrido[2,3-d]pyrimidine-6-carboxylic acid ethylamide], 68 nM. In the case of `CCNC(=O)c1cn(-c2ccc3c(c2)CCC3)c2nc(Nc3ccc(OCC(O)CN(C)C)cc3)ncc2c1=O` (stereo not shown) [Cpd 12, 2-[4-(3-Dimethylamino-2-hydroxy-propoxy)-phenylamino]-8-indan-5-yl-5-oxo-5,8-dihydro-pyrido[2,3-d]pyrimidine-6-carboxylic acid ethylamide] it was 77 nM; in that of `CN1CCN(c2ccc(Nc3ncc4c(=O)c(C(N)=O)cn(-c5ccccc5)c4n3)cc2)CC1` [Cpd 13, 2-[4-(4-Methyl-piperazin-1-yl)-phenylamino]-5-oxo-8-phenyl-5,8-dihydro-pyrido[2,3-d]pyrimidine-6-carboxylic acid amide], 730 nM; in that of `NC(=O)c1cn(-c2ccc3c(c2)CCC3)c2nc(Nc3ccc(N4CCOCC4)cc3)ncc2c1=O` [Cpd 14, 8-indan-5-yl-2-(4-morpholin-4-yl-phenylamino)-5-oxo-5,8-dihydro-pyrido[2,3-d]pyrimidine-6-carboxylic acid amide], 19 nM. The figure for `CN(C)c1ccc(Nc2ncc3c(=O)c(C(N)=O)cn(-c4ccc5c(c4)CCC5)c3n2)cc1` [Cpd 15, 2-(4-Dimethylamino-phenylamino)-8-indan-5-yl-5-oxo-5,8-dihydro-pyrido[2,3-d]pyrimidine-6-carboxylic acid amide] is 70 nM. Take `CCOC(=O)c1cn(C2CCCCC2)c2nc(Nc3ccc(N4CCN(C)CC4)cc3)ncc2c1=O` [Cpd 17, 8-Cyclohexyl-2-[4-(4-methyl-piperazin-1-yl)-phenylamino]-5-oxo-5,8-dihydro-pyrido[2,3-d]pyrimidine-6-carboxylic acid ethyl ester]: the IC50 turned out to be 1700 nM. Take `CN1CCN(c2ccc(Nc3ncc4c(=O)c(C(N)=O)cn(C5CCCC5)c4n3)cc2)CC1` [Cpd 19, 8-Cyclopentyl-2-[4-(4-methyl-piperazin-1-yl)-phenylamino]-5-oxo-5,8-dihydro-pyrido[2,3-d]pyrimidine-6-carboxylic acid amide]: the IC50 was determined as 56 nM. Regarding `NC(=O)c1cn(-c2ccc3c(c2)CCC3)c2nc(Nc3cccc(CN4CCOCC4)c3)ncc2c1=O` [Cpd 24, 8-Indan-5-yl-2-(3-morpholin-4-ylmethyl-phenylamino)-5-oxo-5,8-dihydro-pyrido[2,3-d]pyrimidine-6-carboxylic acid amide], the 50% inhibitory concentration (IC50) came out at 18 nM. The figure for `CN1CCN(c2ccc(Nc3ncc4c(=O)c(C(N)=O)cn(-c5ccc6c(c5)CCC6)c4n3)c(O)c2)CC1` [Cpd 25, 2-[2-Hydroxy-4-(4-methyl-piperazin-1-yl)-phenylamino]-8-indan-5-yl-5-oxo-5,8-dihydro-pyrido[2,3-d]pyrimidine-6-carboxylic acid amide] is 93 nM; for `CN1CCN(c2ccc(Nc3cc4c(cn3)c(=O)c(C(N)=O)cn4-c3ccc4c(c3)CCC4)cc2)CC1` [Cpd 26, 1-Indan-5-yl-7-[4-(4-methyl-piperazin-1-yl)-phenylamino]-4-oxo-1,4-dihydro-[1,6]naphthyridine-3-carboxylic acid amide] it is 56 nM; for `NC(=O)c1cn(-c2ccc3c(c2)CCC3)c2nc(Nc3ccc(CCN4CCOCC4)cc3)ncc2c1=O` [Cpd 27, 8-Indan-5-yl-2-[4-(2-morpholin-4-yl-ethyl)-phenylamino]-5-oxo-5,8-dihydro-pyrido[2,3-d]pyrimidine-6-carboxylic acid amide] it is 10 nM. In the case of `CCNC(=O)c1cn(-c2ccc3c(c2)CCC3)c2nc(Nc3ccc(CCN4CCOCC4)cc3)ncc2c1=O` [Cpd 29, 8-Indan-5-yl-2-[4-(2-morpholin-4-yl-ethyl)-phenylamino]-5-oxo-5,8-dihydro-pyrido[2,3-d]pyrimidine-6-carboxylic acid ethyl amide] it was 33 nM; in that of `NC(=O)c1cn(-c2ccc3c(c2)CCC3)c2nc(Nc3ccc(C[C@H]4COC(=O)N4)cc3)ncc2c1=O` [Cpd 30, (4S)-8-Indan-5-yl-5-oxo-2-[4-(2-oxo-oxazolidin-4-ylmethyl)-phenylamino]-5,8-dihydro-pyrido[2,3-d]pyrimidine-6-carboxylic acid amide], 12 nM; in that of `CNC(=O)c1cn(-c2ccc3c(c2)CCC3)c2nc(Nc3ccc(C[C@H]4COC(=O)N4)cc3)ncc2c1=O` [Cpd 31, (4S)-8-Indan-5-yl-5-oxo-2-[4-(2-oxo-oxazolidin-4-ylmethyl)-phenylamino]-5,8-dihydro-pyrido[2,3-d]pyrimidine-6-carboxylic acid methyl amide], 20 nM. The figure for `CCNC(=O)c1cn(-c2ccc3c(c2)CCC3)c2nc(Nc3ccc(C[C@H]4COC(=O)N4)cc3)ncc2c1=O` [Cpd 32, (4S)-8-Indan-5-yl-5-oxo-2-[4-(2-oxo-oxazolidin-4-ylmethyl)-phenylamino]-5,8-dihydro-pyrido[2,3-d]pyrimidine-6-carboxylic acid ethyl amide] is 33 nM.
